Reference: patent publication US10689361B2, “Quinoline derivative and use thereof” (priority 2016, dated 2020)

Key:
[1] = molecular target: VEGFR1 (Homo sapiens, UniProt P17948); experiment: Caliper Mobility Shift Assay, kinase inhibition; assay type: biochemical; settings: read-out: Kinase inhibitory activity (IC50, nM) VEGFR1
[2] = molecular target: VEGFR2 (Homo sapiens, UniProt P35968); experiment: Caliper Mobility Shift Assay, kinase inhibition; assay type: biochemical; settings: read-out: Kinase inhibitory activity (IC50, nM) VEGFR2
[3] = molecular target: VEGFR3 (Homo sapiens, UniProt P35916); experiment: Caliper Mobility Shift Assay, kinase inhibition; assay type: biochemical; settings: read-out: Kinase inhibitory activity (IC50, nM) VEGFR3
[4] = molecular target: T1, FLT3 (Homo sapiens, UniProt P36888); experiment: Caliper Mobility Shift Assay, kinase inhibition; assay type: biochemical; settings: read-out: Kinase inhibitory activity (IC50, nM) FLT3
T1 sequence (P36888 27-993): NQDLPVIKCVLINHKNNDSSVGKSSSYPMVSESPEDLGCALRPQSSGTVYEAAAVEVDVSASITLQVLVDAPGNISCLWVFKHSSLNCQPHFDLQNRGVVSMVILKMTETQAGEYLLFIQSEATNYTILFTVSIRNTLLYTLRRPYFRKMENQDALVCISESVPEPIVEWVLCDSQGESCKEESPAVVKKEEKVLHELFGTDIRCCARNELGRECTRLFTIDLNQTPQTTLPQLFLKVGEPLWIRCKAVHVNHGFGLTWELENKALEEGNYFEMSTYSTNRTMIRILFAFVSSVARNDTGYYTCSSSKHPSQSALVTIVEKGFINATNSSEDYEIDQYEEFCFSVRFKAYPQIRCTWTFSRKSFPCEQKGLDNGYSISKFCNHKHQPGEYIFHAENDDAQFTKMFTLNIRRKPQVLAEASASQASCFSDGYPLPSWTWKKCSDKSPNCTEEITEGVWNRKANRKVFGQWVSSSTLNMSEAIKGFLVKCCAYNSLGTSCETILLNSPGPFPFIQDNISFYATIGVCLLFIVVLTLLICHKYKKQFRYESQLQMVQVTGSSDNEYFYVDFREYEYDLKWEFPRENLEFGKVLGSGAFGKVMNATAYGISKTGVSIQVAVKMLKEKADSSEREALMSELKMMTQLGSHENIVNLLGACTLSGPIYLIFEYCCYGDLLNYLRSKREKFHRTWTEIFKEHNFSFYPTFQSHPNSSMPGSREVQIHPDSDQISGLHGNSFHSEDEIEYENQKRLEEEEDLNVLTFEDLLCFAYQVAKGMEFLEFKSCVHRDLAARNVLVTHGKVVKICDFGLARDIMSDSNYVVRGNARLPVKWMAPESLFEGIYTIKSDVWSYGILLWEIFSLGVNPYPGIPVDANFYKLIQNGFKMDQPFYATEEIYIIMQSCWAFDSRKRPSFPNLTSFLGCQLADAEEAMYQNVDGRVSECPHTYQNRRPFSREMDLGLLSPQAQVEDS

[5] = molecular target: PDGFRα (Homo sapiens, UniProt P16234); experiment: Caliper Mobility Shift Assay, kinase inhibition; assay type: biochemical; settings: read-out: Kinase inhibitory activity (IC50, nM) PDGFRα
[6] = molecular target: PDGFRβ (Homo sapiens, UniProt P09619); experiment: Caliper Mobility Shift Assay, kinase inhibition; assay type: biochemical; settings: read-out: Kinase inhibitory activity (IC50, nM) PDGFRβ
[7] = molecular target: FGFR1 (Homo sapiens, UniProt P11362); experiment: Caliper Mobility Shift Assay, kinase inhibition; assay type: biochemical; settings: read-out: Kinase inhibitory activity (IC50, nM) FGFR1
[8] = molecular target: RET (Homo sapiens, UniProt P07949); experiment: Caliper Mobility Shift Assay, kinase inhibition; assay type: biochemical; settings: read-out: Kinase inhibitory activity (IC50, nM) RET
[9] = molecular target: EGFR (Homo sapiens, UniProt P00533); experiment: Caliper Mobility Shift Assay, kinase inhibition; assay type: biochemical; settings: read-out: Kinase inhibitory activity (IC50, nM) EGFR
Procedure: (§1) The semi-inhibitory concentration IC50 (the concentration of the compound required to inhibit the enzymatic activity to 50%) of a compound was measured by mixing a fixed enzyme with a specific substrate and the test compound of different concentrations. The test method used was Caliper Mobility Shift Assay, the kinases tested were VEGFR1, VEGFR2, VEGFR3, FLT3, PDGFRα, PDGFRβ, FGFR1, RET, EGFR and IGF1R, and the standard reference compound used was staurosporine.

[10] = molecular target: IGF1R (Homo sapiens, UniProt P08069); experiment: Caliper Mobility Shift Assay, kinase inhibition; assay type: biochemical; settings: read-out: Kinase inhibitory activity (IC50, nM) IGF1R
Procedure: as §1

[11] = Pharmacokinetic property evaluation test in CD-1 mice, intravenous; assay type: in vivo; settings: both sexes, mouse, plasma, intravenous injection, 3 mg/kg, single administration, non-compartment model; for half-life: read-out: Terminal t1/2 (converted); for Vd: read-out: Vss
Procedure: Experimental animals: CD-1 mice, males and females; weight: 20-25 g;
[…] Route of administration: intravenous injection. […] Dosage: 3 mg/kg.
Sample collection: Blood was collected at the following time points: 5 min, 15 min, 30 min, 1 hr, 2 hr, 4 hr, 8 hr, and 24 hr after administration.
Sample analysis: The collected samples were tested using the LC-MS/MS method. The instrument model was API4000.
Pharmacokinetic data analysis: The obtained plasma concentration data were fitted and calculated according to the non-compartment model using WinNolin, and some results are summarized in Table 2.

RET, sequence (P07949 29-1114, species assumed): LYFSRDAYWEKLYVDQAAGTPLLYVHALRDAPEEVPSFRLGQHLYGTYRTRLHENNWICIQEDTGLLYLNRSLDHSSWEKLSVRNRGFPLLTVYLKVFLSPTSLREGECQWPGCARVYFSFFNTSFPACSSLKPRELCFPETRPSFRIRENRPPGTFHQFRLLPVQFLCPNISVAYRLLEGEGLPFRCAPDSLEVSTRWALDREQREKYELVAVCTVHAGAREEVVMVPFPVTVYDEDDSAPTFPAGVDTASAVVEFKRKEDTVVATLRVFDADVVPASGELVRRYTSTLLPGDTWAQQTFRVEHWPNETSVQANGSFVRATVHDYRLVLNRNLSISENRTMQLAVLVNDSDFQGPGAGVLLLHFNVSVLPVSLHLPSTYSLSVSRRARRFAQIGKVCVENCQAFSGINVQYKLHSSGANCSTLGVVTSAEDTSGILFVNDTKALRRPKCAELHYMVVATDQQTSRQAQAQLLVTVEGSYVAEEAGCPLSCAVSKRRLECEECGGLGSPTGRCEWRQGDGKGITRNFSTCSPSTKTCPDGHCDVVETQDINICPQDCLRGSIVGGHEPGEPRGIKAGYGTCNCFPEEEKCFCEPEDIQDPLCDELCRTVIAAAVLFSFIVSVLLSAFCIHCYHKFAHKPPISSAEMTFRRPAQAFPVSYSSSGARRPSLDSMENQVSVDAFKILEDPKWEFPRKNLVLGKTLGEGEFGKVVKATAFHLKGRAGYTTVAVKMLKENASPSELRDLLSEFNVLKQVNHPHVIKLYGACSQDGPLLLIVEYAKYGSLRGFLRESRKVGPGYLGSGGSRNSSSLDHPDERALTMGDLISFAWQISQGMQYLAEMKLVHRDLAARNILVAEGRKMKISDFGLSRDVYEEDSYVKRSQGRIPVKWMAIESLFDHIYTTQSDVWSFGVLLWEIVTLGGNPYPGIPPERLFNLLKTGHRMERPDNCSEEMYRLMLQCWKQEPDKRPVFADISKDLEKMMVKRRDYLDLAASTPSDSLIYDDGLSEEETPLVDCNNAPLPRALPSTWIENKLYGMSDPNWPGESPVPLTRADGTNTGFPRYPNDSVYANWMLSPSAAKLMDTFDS
FGFR1, sequence (P11362 22-822, species assumed): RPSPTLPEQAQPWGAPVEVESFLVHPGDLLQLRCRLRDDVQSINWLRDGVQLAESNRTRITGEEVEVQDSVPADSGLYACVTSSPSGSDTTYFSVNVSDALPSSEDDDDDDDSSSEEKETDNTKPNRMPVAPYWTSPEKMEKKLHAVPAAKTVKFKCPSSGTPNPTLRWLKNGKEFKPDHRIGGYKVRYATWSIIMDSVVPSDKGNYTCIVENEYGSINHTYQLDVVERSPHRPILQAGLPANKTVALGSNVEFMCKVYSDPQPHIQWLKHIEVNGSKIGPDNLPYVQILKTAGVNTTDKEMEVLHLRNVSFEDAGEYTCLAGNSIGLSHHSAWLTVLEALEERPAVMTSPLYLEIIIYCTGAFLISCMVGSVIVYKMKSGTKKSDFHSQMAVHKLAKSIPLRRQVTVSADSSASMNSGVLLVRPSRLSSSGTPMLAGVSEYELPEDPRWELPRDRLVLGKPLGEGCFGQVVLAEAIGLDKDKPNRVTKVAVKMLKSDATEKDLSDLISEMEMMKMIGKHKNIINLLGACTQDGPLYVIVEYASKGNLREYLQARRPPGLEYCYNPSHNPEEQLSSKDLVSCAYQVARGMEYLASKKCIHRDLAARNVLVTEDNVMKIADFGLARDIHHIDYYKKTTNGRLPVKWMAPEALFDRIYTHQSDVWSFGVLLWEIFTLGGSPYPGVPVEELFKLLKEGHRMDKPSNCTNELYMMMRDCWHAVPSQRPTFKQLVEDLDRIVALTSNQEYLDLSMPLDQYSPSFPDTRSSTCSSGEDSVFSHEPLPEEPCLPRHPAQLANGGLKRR
VEGFR3, sequence (P35916 25-1363, species assumed): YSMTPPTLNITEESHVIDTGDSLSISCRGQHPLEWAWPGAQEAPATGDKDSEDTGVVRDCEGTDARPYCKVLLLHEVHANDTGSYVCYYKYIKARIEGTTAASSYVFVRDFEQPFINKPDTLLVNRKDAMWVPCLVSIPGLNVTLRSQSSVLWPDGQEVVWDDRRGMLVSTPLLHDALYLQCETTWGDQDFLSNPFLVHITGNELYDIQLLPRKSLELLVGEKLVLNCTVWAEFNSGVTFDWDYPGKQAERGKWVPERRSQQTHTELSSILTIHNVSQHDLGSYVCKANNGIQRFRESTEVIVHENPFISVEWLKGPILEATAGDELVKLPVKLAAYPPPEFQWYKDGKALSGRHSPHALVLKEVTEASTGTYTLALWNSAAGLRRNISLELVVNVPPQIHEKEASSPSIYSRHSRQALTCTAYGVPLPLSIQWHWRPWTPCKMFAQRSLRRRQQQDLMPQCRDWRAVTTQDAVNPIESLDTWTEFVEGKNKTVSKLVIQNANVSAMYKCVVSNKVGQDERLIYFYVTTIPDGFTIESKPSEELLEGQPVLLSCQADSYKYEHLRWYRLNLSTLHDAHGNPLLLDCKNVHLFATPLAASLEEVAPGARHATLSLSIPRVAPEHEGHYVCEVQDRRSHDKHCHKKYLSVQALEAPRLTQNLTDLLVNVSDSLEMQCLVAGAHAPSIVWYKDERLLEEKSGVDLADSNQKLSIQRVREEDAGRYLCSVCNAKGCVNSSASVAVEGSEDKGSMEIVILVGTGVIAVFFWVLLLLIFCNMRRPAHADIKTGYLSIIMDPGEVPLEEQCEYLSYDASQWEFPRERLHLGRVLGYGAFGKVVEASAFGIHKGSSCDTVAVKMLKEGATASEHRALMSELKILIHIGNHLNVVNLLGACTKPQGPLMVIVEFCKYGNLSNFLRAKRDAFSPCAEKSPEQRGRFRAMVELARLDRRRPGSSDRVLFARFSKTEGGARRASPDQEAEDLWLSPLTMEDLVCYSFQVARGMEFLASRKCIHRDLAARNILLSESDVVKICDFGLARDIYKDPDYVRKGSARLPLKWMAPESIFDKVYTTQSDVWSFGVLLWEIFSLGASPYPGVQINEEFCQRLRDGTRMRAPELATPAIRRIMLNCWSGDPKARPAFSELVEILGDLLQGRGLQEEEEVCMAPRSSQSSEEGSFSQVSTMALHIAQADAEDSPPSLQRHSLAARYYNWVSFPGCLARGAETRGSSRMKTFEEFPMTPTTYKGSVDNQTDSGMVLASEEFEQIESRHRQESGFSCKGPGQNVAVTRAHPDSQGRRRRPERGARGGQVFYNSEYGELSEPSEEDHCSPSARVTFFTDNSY
VEGFR1, sequence (P17948 27-1338, species assumed): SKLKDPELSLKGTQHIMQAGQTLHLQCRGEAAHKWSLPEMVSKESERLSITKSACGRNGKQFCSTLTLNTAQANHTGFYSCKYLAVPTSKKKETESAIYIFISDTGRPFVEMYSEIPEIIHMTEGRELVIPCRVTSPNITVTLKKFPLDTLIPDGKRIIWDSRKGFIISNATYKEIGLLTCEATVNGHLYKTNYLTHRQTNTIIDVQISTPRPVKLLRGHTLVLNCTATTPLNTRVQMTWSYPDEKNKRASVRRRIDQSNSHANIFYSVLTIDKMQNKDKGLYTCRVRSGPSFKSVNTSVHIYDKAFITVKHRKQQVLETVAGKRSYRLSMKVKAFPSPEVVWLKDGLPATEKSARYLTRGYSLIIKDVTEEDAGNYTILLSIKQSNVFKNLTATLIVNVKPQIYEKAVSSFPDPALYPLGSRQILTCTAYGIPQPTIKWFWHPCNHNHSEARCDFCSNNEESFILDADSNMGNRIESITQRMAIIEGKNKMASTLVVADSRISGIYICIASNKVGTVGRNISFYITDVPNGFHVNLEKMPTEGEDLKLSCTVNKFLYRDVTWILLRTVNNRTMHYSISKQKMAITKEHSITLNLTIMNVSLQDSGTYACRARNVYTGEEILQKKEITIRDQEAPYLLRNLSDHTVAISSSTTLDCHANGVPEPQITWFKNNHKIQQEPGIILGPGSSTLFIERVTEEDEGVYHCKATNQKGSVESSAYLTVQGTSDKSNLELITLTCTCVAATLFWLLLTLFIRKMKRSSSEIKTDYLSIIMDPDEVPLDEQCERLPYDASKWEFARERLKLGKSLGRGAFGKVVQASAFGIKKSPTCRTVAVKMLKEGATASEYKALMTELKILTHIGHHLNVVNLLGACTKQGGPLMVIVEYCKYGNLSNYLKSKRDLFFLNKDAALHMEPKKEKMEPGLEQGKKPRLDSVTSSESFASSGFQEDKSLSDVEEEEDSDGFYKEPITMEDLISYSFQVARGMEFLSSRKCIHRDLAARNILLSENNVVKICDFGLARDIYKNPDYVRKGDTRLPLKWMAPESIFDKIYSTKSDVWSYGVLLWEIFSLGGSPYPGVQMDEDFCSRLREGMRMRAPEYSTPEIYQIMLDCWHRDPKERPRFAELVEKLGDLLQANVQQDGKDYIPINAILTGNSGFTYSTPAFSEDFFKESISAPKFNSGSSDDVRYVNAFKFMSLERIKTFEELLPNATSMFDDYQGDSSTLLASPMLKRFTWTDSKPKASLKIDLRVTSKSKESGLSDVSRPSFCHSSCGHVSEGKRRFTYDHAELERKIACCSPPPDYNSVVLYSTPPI

Compound | IC50 [1] | IC50 [2] | IC50 [3] | IC50 [4] | IC50 [5] | IC50 [6] | IC50 [7] | IC50 [8] | IC50 [9] | IC50 [10] | AUC(0-t) [11] | MRT inf [11] | clearance [11] | half-life [11] | Vd [11]
COc1cc2nccc(Oc3ccc(NC(=O)Nc4cn[nH]c4)cc3F)c2cc1C(N)=O [Compound of Formula Ic] | 831 nM | 11 nM | 34 nM | 708 nM | 42 nM | 151 nM | > 1000 nM | 204 nM | > 200000 nM | > 200000 nM |  |  |  |  | 
COc1cc2nccc(Oc3ccc(NC(=O)Nc4cnn(C)c4)cc3F)c2cc1C(N)=O [Compound of Formula Ib] | 555 nM | 3 nM | 84 nM | 890 nM | 37 nM | 165 nM | > 1000 nM | 290 nM | > 200000 nM | > 200000 nM | 1600 ng·h/mL | 49.2 min | 30.5 mL/min/kg | 134 min | 1.48 L/kg
CNC(=O)c1cc(Oc2ccc(NC(=O)Nc3ccc(Cl)c(C(F)(F)F)c3)c(F)c2)ccn1 [Regorafenib, regorafenib, reference compound] |  |  |  |  |  |  |  |  | 10600 nM | > 400000 nM |  |  |  |  | 
CNC(=O)c1cc2c(Oc3ccc(NC(=O)Nc4cnn(C)c4)cc3F)ccnc2cc1OC [Compound of Formula Ia] | 381 nM | 2.4 nM | 56 nM | 576 nM | 27 nM | 110 nM | > 1000 nM | 106 nM | > 500000 nM | > 500000 nM | 2040 ng·h/mL | 20.4 min | 25.2 mL/min/kg | 28.2 min | 0.525 L/kg
